The results in this text go back to patent US8030354B2, “Substituted biphenyl GPR40 modulators” (Amgen Inc., priority 2007, dated 2011).

In assay [1] the target is T1, GPR40 (Homo sapiens, UniProt O14842). The experiment in a line: Inositol phosphate accumulation assay (A9_GPR40 cells). In kind it is cell-based. The following applies: inositol phosphate assay, A9_GPR40 cells, 1 hour; read-out: IP3 EC50. Details: expressed in transfected cells; host or cells: CHO cells stably transfected with GPR40 and aequorin. A digest of the protocol: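 [^3H] inositol phosphate accumulation was measured by SPA after 1 h compound exposure at 37° C in HBSS/10 mM LiCl containing HSA, ending with a 20 mM formic acid quench. The GPR40-transfected A9 cells had first been labelled overnight (16 h) with 1 μCi/mL ^3H-inositol.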

The target of assay [2] is T1, GPR40. As to the kind of experiment: Cell-based aequorin assay (CHO cells stably expressing GPR40 and aequorin). Also on record: expressed in transfected cells; host or cells: CHO cells stably transfected with GPR40 and aequorin. The following applies: activation of human GPR40, CHO cells, 0.01% HSA. The method, boiled down:
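CHO cells stably co-expressing GPR40 and aequorin, loaded with coelenterazine (1 ug/mL, 2 h, room temperature) in H/HBSS with 20 mM Hepes and 0.01% fatty acid-free HSA. Serially diluted compounds added; luminescence recorded over 20 s. EC50 from dose-response of maximum relative light units.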

As a reminder, the EC50 is the concentration at which the effect is half-maximal.

T1 sequence (O14842 whole entry): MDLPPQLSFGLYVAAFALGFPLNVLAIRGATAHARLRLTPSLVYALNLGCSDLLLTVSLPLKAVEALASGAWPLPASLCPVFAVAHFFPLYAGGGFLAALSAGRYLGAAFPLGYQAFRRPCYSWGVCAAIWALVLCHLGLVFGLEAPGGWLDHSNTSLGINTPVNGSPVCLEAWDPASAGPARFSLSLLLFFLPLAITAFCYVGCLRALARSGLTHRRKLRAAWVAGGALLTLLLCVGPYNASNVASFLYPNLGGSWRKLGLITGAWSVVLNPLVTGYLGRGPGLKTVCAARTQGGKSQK

`CCC[C@H](CC(=O)O)c1cccc(OCc2ccc(-c3cc(OC)ccc3F)c(N3CCCCC3)c2)c1` (single isomer, unassigned) [Example 67.20, (3R)-3-(3-(((2′-Fluoro-5′-(methyloxy)-2-(1-piperidinyl)-1,1′-biphenyl-4-yl)methyl)oxy)phenyl)hexanoic acid or (3S)-3-(3-(((2′-fluoro-5′-(methyloxy)-2-(1-piperidinyl)-1,1′-biphenyl-4-yl)methyl)oxy)phenyl)hexanoic acid]: the EC50 fell in the range of 10 to 100 nM on GPR40 [1] and 100 to 1000 nM on GPR40 [2].

Take `CCCCOc1cc(COc2cccc(C(CCCC)CC(=O)O)c2)ccc1-c1cc(OC)ccc1F` (single isomer, unassigned) [Example 71.2, (3R)-3-(3-(((2-(Butyloxy)-2′-fluoro-5′-(methyloxy)-1,1′-biphenyl-4-yl)methyl)oxy)phenyl)heptanoic acid or (3S)-3-(3-(((2-(butyloxy)-2′-fluoro-5′-(methyloxy)-1,1′-biphenyl-4-yl)methyl)oxy)phenyl)heptanoic acid]: the EC50 at GPR40 [1] and on GPR40 [2] was 100 to 1000 nM each time.

For the compound `CCO[C@H](c1cc(COc2cccc([C@@H](CC(=O)O)C3CC3)c2F)ccc1-c1ccccc1F)C(C)(C)C` (single isomer, unassigned) [Example 83.10], the values for the EC50 at GPR40 [1] and on GPR40 [2] were 10 to 100 nM and 100 to 1000 nM, respectively.

Turning to `COc1ccc(F)c(-c2ccc(COc3cccc(C(C)CC(=O)O)c3)cc2C2=CCCC2)c1` (single isomer, unassigned) [Example 64.19, (3R)-3-(3-(((2-(1-Cyclopenten-1-yl)-2′-fluoro-5′-(methyloxy)-1,1′-biphenyl-4-yl)methyl)oxy)phenyl)butanoic acid or (3S)-3-(3-(((2-(1-cyclopenten-1-yl)-2′-fluoro-5′-(methyloxy)-1,1′-biphenyl-4-yl)methyl)oxy)phenyl)butanoic acid], the EC50 on GPR40 [1] and at GPR40 [2] was 100 to 1000 nM in each case.

As for `CCC(CC(=O)O)c1ccc(F)c(OCc2ccc(-c3cc(OC)ccc3F)c(C3=CCCC3(C)C)c2)c1` (single isomer, unassigned) [Example 86.1, (3R)-3-(3-(((2-(5,5-Dimethyl-1-cyclopenten-1-yl)-2′-fluoro-5′-(methyloxy)-1,1′-biphenyl-4-yl)methyl)oxy)-4-fluorophenyl)pentanoic acid or (3S)-3-(3-(((2-(5,5-dimethyl-1-cyclopenten-1-yl)-2′-fluoro-5′-(methyloxy)-1,1′-biphenyl-4-yl)methyl)oxy)-4-fluorophenyl)pentanoic acid], the EC50 at GPR40 [1] and on GPR40 [2] was 100 to 1000 nM each time.

Take `CCCCOc1cc(COc2cccc([C@H](C)CC(=O)O)c2)ccc1-c1cccc(OC)c1` (single isomer, unassigned) [Example 20, (3R)-3-(3-(((2-(Butyloxy)-3′-(methyloxy)-1,1′-biphenyl-4-yl)methyl)oxy)phenyl)butanoic acid or (3S)-3-(3-(((2-(butyloxy)-3′-(methyloxy)-1,1′-biphenyl-4-yl)methyl)oxy)phenyl)butanoic acid]: the EC50 at GPR40 [1] and on GPR40 [2] was 100 to 1000 nM throughout.

On to `COc1ccc(F)c(-c2ccc(COc3cccc(C(CC(=O)O)CC4CC4)c3)cc2N2CCCCCC2)c1` (single isomer, unassigned) [Example 69.29, (3R)-3-(3-(((2-(1-Azepanyl)-2′-fluoro-5′-(methyloxy)-1,1′-biphenyl-4-yl)methyl)oxy)phenyl)-4-cyclopropylbutanoic acid or (3S)-3-(3-(((2-(1-azepanyl)-2′-fluoro-5′-(methyloxy)-1,1′-biphenyl-4-yl)methyl)oxy)phenyl)-4-cyclopropylbutanoic acid], for which the EC50 on GPR40 [1] and at GPR40 [2] was 100 to 1000 nM each time.

Turning to `COc1ccc(F)c(-c2ccc(COc3cccc(C4(CC(=O)O)CCCCC4)c3)cc2C2CCCC2(C)C)c1` (single isomer, unassigned) [Example 105.1, (1-{3-[2-((S)-2,2-Dimethyl-cyclopentyl)-2′-fluoro-5′-methoxy-biphenyl-4-ylmethoxy]-phenyl}-cyclohexyl)-acetic acid or (1-{3-[2-((R)-2,2-dimethyl-cyclopentyl)-2′-fluoro-5′-methoxy-biphenyl-4-ylmethoxy]-phenyl}-cyclohexyl)-acetic acid], the EC50 was in the range of 10 to 100 nM on GPR40 [1] and 100 to 1000 nM at GPR40 [2].

For the compound `CC[C@H](CC(=O)O)c1ccc(C)c(OCc2ccc(-c3cc(OC)ccc3F)c(C(C)(C)C)c2)c1` (single isomer, unassigned) [Example 87], the EC50 on GPR40 [1] and at GPR40 [2] was 100 to 1000 nM throughout.

Turning to `COc1ccc(F)c(-c2ccc(COc3cccc([C@@H](CC(=O)O)C(F)(F)F)c3)cc2C(C)(C)C)c1` (single isomer, unassigned) [Example 6, (3R)-3-(3-(((2-(1,1-Dimethylethyl)-2′-fluoro-5′-(methyloxy)-1,1′-biphenyl-4-yl)methyl)oxy)phenyl)-4,4,4-trifluorobutanoic acid or (3S)-3-(3-(((2-(1,1-dimethylethyl)-2′-fluoro-5′-(methyloxy)-1,1′-biphenyl-4-yl)methyl)oxy)phenyl)-4,4,4-trifluorobutanoic acid], the EC50 on GPR40 [1] was more than 1000 nM; at GPR40 [2], 1000 to 10000 nM.

On to `CC1(C)CCC[C@@H]1c1cc(COc2cccc([C@@H](CC(=O)O)C3CC3)c2)ccc1-c1cc(C(F)F)ccc1F` (single isomer, unassigned) [Example 66.51], for which the EC50 on GPR40 [1] was 10 to 100 nM; on GPR40 [2], 100 to 1000 nM.

On to `CCCCOc1cc(COc2cccc([C@H](CC)CC(=O)O)c2)ccc1-c1cc(OC)ccc1F` (single isomer, unassigned) [Example 18, (3R)-3-(3-(((2-(Butyloxy)-2′-fluoro-5′-(methyloxy)-1,1′-biphenyl-4-yl)methyl)oxy)phenyl)pentanoic acid or (3S)-3-(3-(((2-(butyloxy)-2′-fluoro-5′-(methyloxy)-1,1′-biphenyl-4-yl)methyl)oxy)phenyl)pentanoic acid], for which the EC50 on GPR40 [1] and on GPR40 [2] was 100 to 1000 nM each time.

Turning to `COc1cc(-c2cc(F)c(COc3cccc([C@@H](CC(=O)O)C4CC4)c3)cc2[C@H]2CCCC2(C)C)c(F)cn1` (single isomer, unassigned) [Example 66.77], the EC50 is less than 10 nM at GPR40 [1] and 10 to 100 nM at GPR40 [2].

For `C=CC(C)(C)C(OC)c1cc(COc2cccc(C(CC(=O)O)CC3CC3)c2)ccc1-c1cc(OC)ccc1F` (single isomer, unassigned) [Example 69.38], the EC50 at GPR40 [1] was less than 10 nM; on GPR40 [2], 100 to 1000 nM.

Regarding `CCC[C@H](CC(=O)O)c1cccc(OCc2cc(C3=CCCC3(C)C)c(-c3cc(OC)ccc3F)cc2F)c1` (single isomer, unassigned) [Example 67.21], the values for the EC50 on GPR40 [1] and on GPR40 [2] were 10 to 100 nM and 100 to 1000 nM, respectively.

For `COc1ccc(F)c(-c2ccc(COc3cccc(C(CC(=O)O)CC4CC4)c3)cc2C2CCCCCCC2)c1` (single isomer, unassigned) [Example 69.13, (3R)-3-(3-(((2-Cyclooctyl-2′-fluoro-5′-(methyloxy)-1,1′-biphenyl-4-yl)methyl)oxy)phenyl)-4-cyclopropylbutanoic acid or (3S)-3-(3-(((2-cyclooctyl-2′-fluoro-5′-(methyloxy)-1,1′-biphenyl-4-yl)methyl)oxy)phenyl)-4-cyclopropylbutanoic acid], the figures for the EC50 on GPR40 [1] and at GPR40 [2] were less than 10 nM and 100 to 1000 nM, respectively.

For `COc1cccc(-c2ccc(COc3cccc(C(CC(=O)O)C4CCC4)c3)cc2C(C)(C)C)c1` (single isomer, unassigned) [Example 70.1, (3S)-3-Cyclobutyl-3-(3-(((2-(1,1-dimethylethyl)-3′-(methyloxy)-1,1′-biphenyl-4-yl)methyl)oxy)phenyl)propanoic acid or (3R)-3-cyclobutyl-3-(3-(((2-(1,1-dimethylethyl)-3′-(methyloxy)-1,1′-biphenyl-4-yl)methyl)oxy)phenyl)propanoic acid], the EC50 on GPR40 [1] lay in the range of 10 to 100 nM; at GPR40 [2] it was 100 to 1000 nM.

As to `COc1ccc(F)c(-c2ccc(COc3cccc([C@@H](CC(=O)O)C4CC4)c3F)cc2[C@@H](OC)C2(C)CC2)c1` (single isomer, unassigned) [Example 83.22], the figures for the EC50 on GPR40 [1] and at GPR40 [2] were less than 10 nM and 10 to 100 nM, respectively.

In the case of `C=C(c1cc(COc2cccc([C@@H](CC(=O)O)CC3CC3)c2)ccc1-c1cc(OC)ccc1F)C(C)(C)C` (single isomer, unassigned) [Example 69.15, (3R)-4-Cyclopropyl-3-(3-(((2-(1-(1,1-dimethylethyl)ethenyl)-2′-fluoro-5′-(methyloxy)-1,1′-biphenyl-4-yl)methyl)oxy)phenyl)butanoic acid or (3S)-4-cyclopropyl-3-(3-(((2-(1-(1,1-dimethylethyl)ethenyl)-2′-fluoro-5′-(methyloxy)-1,1′-biphenyl-4-yl)methyl)oxy)phenyl)butanoic acid], the EC50 on GPR40 [1] fell in the range of 10 to 100 nM; on GPR40 [2] it was 100 to 1000 nM.

As to `COc1ccc(F)c(-c2ccc(COc3cccc([C@@H](CC(=O)O)C4CC4)c3)cc2[C@@H]2CCCCC2(C)C)c1` (single isomer, unassigned) [Example 66.22], the EC50 at GPR40 [1] was less than 10 nM; on GPR40 [2] it was 10 to 100 nM.
